Reference: PubChem BioAssay AID1259411 (Chemical Carcinogenesis Research Information System (CCRIS), 2018)
Calls of active or inactive are those of the source. No rule for the calls is given here.

System: rodent carcinogenicity bioassays, tumor incidence
Assay: CCRIS carcinogenicity studies
Summary of the method: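 NCI-built, expert-reviewed records of carcinogenicity and related test outcomes (mutagenicity, tumor promotion/inhibition) compiled from published and report sources, historical span 1985-2011, not updated.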

## O=[N+]([O-])c1ccc2ccc3cccc4ccc1c2c34
Species: HAMSTER, Strain/Sex: SYRIAN/MALE, Route: INTRATRACHEAL, Dose: 0, 1, 2 MG ADSORBED ONTO CARBON CARRIER PARTICLES IN 0.2 ML SALINE 1/WK FOR 92 WK (STUDY DURATION: 92 WK), Dose: 0, 1, 2 MG ADSORBED ONTO CARBON CARRIER PARTICLES IN 0.2 ML SALINE 1/WK FOR 92 WK (STUDY DURATION: 92 WK)
  carcinogen call: inactive; negative
Species: HAMSTER, Strain/Sex: SYRIAN/MALE, Route: INTRATRACHEAL, Dose: 0, 1, 2 MG ADSORBED ONTO CARBON CARRIER PARTICLES IN 0.2 ML SALINE 2/WK FOR 92 WK (STUDY DURATION: 92 WK), Dose: 0, 1, 2 MG ADSORBED ONTO CARBON CARRIER PARTICLES IN 0.2 ML SALINE 2/WK FOR 92 WK (STUDY DURATION: 92 WK)
  carcinogen call: inactive; negative
Species: MOUSE, Strain/Sex: B6C3F1/FEMALE, Route: INTRAPERITONEAL, Dose: 0, 7 NMOL (TOTAL DOSE), 1/7, 2/7 AND 4/7 OF THE TOTAL DOSE ADMINISTERED WITHIN 24 HR OF BIRTH AND AT 8 AND 15 D OF AGE
  carcinogen call: inactive; negative
Species: MOUSE, Strain/Sex: B6C3F1/MALE, Route: INTRAPERITONEAL, Dose: 0, 7 NMOL (TOTAL DOSE), 1/7, 2/7 AND 4/7 OF THE TOTAL DOSE ADMINISTERED WITHIN 24 HR OF BIRTH AND AT 8 AND 15 D OF AGE
  carcinogen call: inactive; negative
Species: MOUSE, Strain/Sex: BALB/MALE, Route: SUBCUTANEOUS, Dose: 0, 0.1 MG IN DMSO 1/WK FOR 20 WK (STUDY DURATION: 60 WK)
  carcinogen call: inactive; negative
Species: MOUSE, Strain/Sex: ICR/FEMALE, Route: INTRAPERITONEAL, Dose: 0, 21 UG TOTAL DOSE (3 UG/5 µL, 6 UG/10 µL, 12 UG/20 µL DMSO ON DAYS 1,8 AND 15), 105 UG TOTAL DOSE (15 UG/5 µL, 30 UG/1, Dose: 0, 21 UG TOTAL DOSE (3 UG/5 µL, 6 UG/10 µL, 12 UG/20 µL DMSO ON DAYS 1,8 AND 15), 105 UG TOTAL DOSE (15 UG/5 µL, 30 UG/1
  carcinogen call: inactive; negative
Species: MOUSE, Strain/Sex: ICR/MALE, Route: INTRAPERITONEAL, Dose: 0, 21 UG TOTAL DOSE (3 UG/5 µL, 6 UG/10 µL, 12 UG/20 µL DMSO ON DAYS 1,8 AND 15), 105 UG TOTAL DOSE (15 UG/5 µL, 30 UG/1, Dose: 0, 21 UG TOTAL DOSE (3 UG/5 µL, 6 UG/10 µL, 12 UG/20 µL DMSO ON DAYS 1,8 AND 15), 105 UG TOTAL DOSE (15 UG/5 µL, 30 UG/1
  carcinogen call: inactive; negative
Species: MOUSE, Strain/Sex: STRAIN-A/FEMALE, Route: INTRAPERITONEAL, Dose: 0, 0.71, 2.14, 6.44 MMOL/KG IN 0.1 ML TRIOCTANOIN TOTAL DOSE ADMINISTERED AS 3 INJECTIONS/WK FOR 17 INJECTIONS (STUDY DU, Dose: 0, 0.71, 2.14, 6.44 MMOL/KG IN 0.1 ML TRIOCTANOIN TOTAL DOSE ADMINISTERED AS 3 INJECTIONS/WK FOR 17 INJECTIONS (STUDY DU, Tumor Site: Type of Lesion: LUNG: ADENOMA
  carcinogen call: active; positive
Species: MOUSE, Strain/Sex: STRAIN-A/MALE, Route: INTRAPERITONEAL, Dose: 0, 0.71, 2.14, 6.44 MMOL/KG IN 0.1 ML TRIOCTANOIN TOTAL DOSE ADMINISTERED AS 3 INJECTIONS/WK FOR 17 INJECTIONS (STUDY DU, Dose: 0, 0.71, 2.14, 6.44 MMOL/KG IN 0.1 ML TRIOCTANOIN TOTAL DOSE ADMINISTERED AS 3 INJECTIONS/WK FOR 17 INJECTIONS (STUDY DU, Tumor Site: Type of Lesion: LUNG: ADENOMA
  carcinogen call: active; positive
Species: RAT, Strain/Sex: F344/DUCRJ FISCHER/MALE, Route: SUBCUTANEOUS, Dose: 2 MG TWICE WEEKLY FOR 10 WK (STUDY DURATION: 52 WK), Tumor Site: Type of Lesion: INTEGUMENTARY SYSTEM: FIBROUS HISTIOCYTOMAS
  carcinogen call: active; positive
Species: RAT, Strain/Sex: F344/FEMALE, Route: SUBCUTANEOUS, Dose: 0, 40 UMOL (TOTAL DOSE) ADMINISTERED OVER 8 WK BEGINNING WITHIN 24 HR OF BIRTH (STUDY DURATION: 86 WK), Tumor Site: Type of Lesion: HEMATOPOIETIC SYSTEM: LEUKEMIA
  carcinogen call: active; positive
Species: RAT, Strain/Sex: F344/MALE, Route: SUBCUTANEOUS, Dose: 0, 0.2, 2 MG 2/WK FOR 10 WK (STUDY DURATION: 650 D), Dose: 0, 0.2, 2 MG 2/WK FOR 10 WK (STUDY DURATION: 650 D)
  carcinogen call: inactive; negative
Species: RAT, Strain/Sex: F344/MALE, Route: SUBCUTANEOUS, Dose: 2 MG IN DMSO 2/WK FOR 10 WK, Tumor Site: Type of Lesion: INJECTION SITE: MALIGNANT FIBROUS HISTIOCYTOMA
  carcinogen call: active; positive
Species: RAT, Strain/Sex: SPRAGUE-DAWLEY/FEMALE, Route: SUBCUTANEOUS, Dose: 0, 50, 100 UMOL/KG IN DMSO 1/WK FOR 8 WK (STUDY DURATION: 62 WK), Dose: 0, 50, 100 UMOL/KG IN DMSO 1/WK FOR 8 WK (STUDY DURATION: 62 WK), Tumor Site: Type of Lesion: INJECTION SITE: MALIGNANT FIBROUS HISTIOCYTOMA, MAMMARY GLAND: FIBROADENOMA, ADENOCARCINOMA
  carcinogen call: active; positive
Species: RAT, Strain/Sex: SPRAGUE-DAWLEY/MALE, Route: SUBCUTANEOUS, Dose: 0, 50, 100 UMOL/KG IN DMSO 1/WK FOR 8 WK (STUDY DURATION: 62 WK), Dose: 0, 50, 100 UMOL/KG IN DMSO 1/WK FOR 8 WK (STUDY DURATION: 62 WK), Tumor Site: Type of Lesion: INJECTION SITE: MALIGNANT FIBROUS HISTIOCYTOMA
  carcinogen call: active; positive
Species: RAT, Strain/Sex: STRAIN CD/FEMALE, Route: INTRAGASTRIC, Dose: 0, 10 UMOL IN DMSO 3/WK FOR 4 WK (TOTAL DOSE: 16 UMOL/RAT) (STUDY DURATION: 78 WK)
  carcinogen call: inactive; negative
Species: RAT, Strain/Sex: STRAIN CD/FEMALE, Route: INTRAPERITONEAL, Dose: 0, 10 UMOL IN DMSO 3/WK FOR 4 WK (TOTAL DOSE: 16 UMOL/RAT) (STUDY DURATION: 78 WK), Tumor Site: Type of Lesion: MAMMARY GLAND: ADENOCARCINOMA, FIBROADENOMA
  carcinogen call: active; positive
Species: RAT, Strain/Sex: STRAIN CD/FEMALE, Route: INTRAPERITONEAL, Dose: 0, 10 UMOL IN DMSO 3/WK FOR 4 WK (TOTAL DOSE: 16 UMOL/RAT) (STUDY DURATION: 78 WK), Tumor Site: Type of Lesion: PITUITARY GLAND: CARCINOMA
  carcinogen call: active; positive
Species: RAT, Strain/Sex: STRAIN-CD/FEMALE, Route: GAVAGE, Dose: 0, 50 UMOL IN 0.5 ML TRIOCTANOIN 1/WK FOR 8 WK (STUDY DURATION: 49 WK), Tumor Site: Type of Lesion: MAMMARY GLAND: FIBROADENOMA
  carcinogen call: active; positive
Species: RAT, Strain/Sex: STRAIN-CD/FEMALE, Route: INJECTION, Dose: 0, 0.1 ML OF 20.3 UMOL/ML DMSO INJECTED INTO MAMMARY TISSUE OF THE 3 LEFT THORACIC NIPPLES FOLLOWED THE NEXT D BY SIMILA
  carcinogen call: inactive; negative
Species: RAT, Strain/Sex: STRAIN-CD/FEMALE, Route: INJECTION, Dose: 0, 0.1 ML OF A 20.3 UMOL/ML SOLUTION IN DMSO INJECTED INTO MAMMARY TISSUE UNDERLYING 3 LEFT THORACIC NIPPLES THE FOLLOWI
  carcinogen call: inactive; negative
Species: RAT, Strain/Sex: STRAIN-CD/FEMALE, Route: INTRAPERITONEAL, Dose: 0, 67 UMOL/KG BW IN DMSO 3/WK FOR 4 WK (STUDY DURATION: 61 WK)
  carcinogen call: inactive; negative
Species: RAT, Strain/Sex: STRAIN-CD/FEMALE, Route: INTRAPERITONEAL, Dose: 0, 67 UMOL/KG/BW IN 25 UMOL/ML DMSO 3/WK FOR 4 WK (TOTAL DOSE: 0; 119 UMOL) ADMINISTERED TO WEANLING RATS (STUDY DURATIO, Dose: 0, 67 UMOL/KG/BW IN 25 UMOL/ML DMSO 3/WK FOR 4 WK (TOTAL DOSE: 0; 119 UMOL) ADMINISTERED TO WEANLING RATS (STUDY DURATIO
  carcinogen call: inactive; negative
Species: RAT, Strain/Sex: STRAIN-CD/FEMALE, Route: INTRAPERITONEAL, Dose: 0, 100 UMOL/KG BW IN DMSO 1/WK FOR 4 WK (STUDY DURATION: 90 WK), Tumor Site: Type of Lesion: MAMMARY GLAND: ADENOCARCINOMA
  carcinogen call: active; positive
Species: RAT, Strain/Sex: STRAIN-CD/FEMALE, Route: INTRAPERITONEAL, Dose: 0, 100 UMOL/KG/BW IN 70 UMOL/ML DMSO 1/WK FOR 4 WK (TOTAL DOSE: 0; 77.3 UMOL) ADMINISTERED TO WEANLING RATS (STUDY DURAT, Dose: 0, 100 UMOL/KG/BW IN 70 UMOL/ML DMSO 1/WK FOR 4 WK (TOTAL DOSE: 0; 77.3 UMOL) ADMINISTERED TO WEANLING RATS (STUDY DURAT, Tumor Site: Type of Lesion: MAMMARY GLAND: ADENOCARCINOMA
  carcinogen call: active; positive
Species: RAT, Strain/Sex: STRAIN-CD/FEMALE, Route: SUBCUTANEOUS, Dose: 0, 6.3 UMOL (TOTAL DOSE) ADMINISTERED OVER 8 WK BEGINNING ON DAY OF BIRTH (STUDY DURATION: 67 WK), Tumor Site: Type of Lesion: MAMMARY GLAND: TUMOR
  carcinogen call: active; positive
Species: RAT, Strain/Sex: STRAIN-CD/FEMALE, Route: SUBCUTANEOUS, Dose: 0, 63 UMOL (TOTAL DOSE) ADMINISTERED OVER 8 WK BEGINNING WITHIN 24 HR OF BIRTH (STUDY DURATION: 86 WK), Tumor Site: Type of Lesion: MAMMARY GLAND: TUMOR
  carcinogen call: active; positive
Species: RAT, Strain/Sex: STRAIN-CD/FEMALE, Route: SUBCUTANEOUS, Dose: 0, 100 UMOL/KG BW IN DMSO 1/WK FOR 4 WK (STUDY DURATION: 90 WK), Tumor Site: Type of Lesion: MAMMARY GLAND: FIBROADENOMA
  carcinogen call: active; positive
Species: RAT, Strain/Sex: STRAIN-CD/FEMALE, Route: SUBCUTANEOUS, Dose: 0, 100 UMOL/KG/BW IN 70 UMOL/ML DMSO 1/WK FOR 4 WK (TOTAL DOSE: 0; 74.3 UMOL) ADMINISTERED TO WEANLING RATS (STUDY DURAT, Dose: 0, 100 UMOL/KG/BW IN 70 UMOL/ML DMSO 1/WK FOR 4 WK (TOTAL DOSE: 0; 74.3 UMOL) ADMINISTERED TO WEANLING RATS (STUDY DURAT, Tumor Site: Type of Lesion: MAMMARY GLAND: FIBROADENOMA
  carcinogen call: active; positive
Species: RAT, Strain/Sex: STRAIN-CD/FEMALE, Route: SUBCUTANEOUS, Dose: 50, 100 UMOL/KG IN DMSO 1/WK FOR 8 WK, Tumor Site: Type of Lesion: INJECTION SITE: FIBROSARCOMA, MAMMARY GLAND: ADENOCARCINOMA
  carcinogen call: active; positive
Species: RAT, Strain/Sex: STRAIN-CD/MALE, Route: SUBCUTANEOUS, Dose: 50, 100 UMOL/KG IN DMSO 1/WK FOR 8 WK, Tumor Site: Type of Lesion: INJECTION SITE: FIBROSARCOMA
  carcinogen call: active; positive
